Measured values taken from US20080063702A1, “Liposomal Formulations Comprising an Amphipathic Weak Base Like Tempamine for Treatment of Neurodegenerative Conditions” (priority 2004, published 2008).

How the values were obtained:
[1] = test system: PLP injected animals (acute EAE, model for MS); test: Acute EAE induced with PLP 139-151, clinical signs scoring; format: in vivo, SJL female mice
PC12 neurons = test: MPP+ toxicity experiment, LDH leakage assay in NGF-differentiated PC12 cells; format: cell-based
Description: PC12 cells were grown in Dulbecco's modified Eagle's medium (DMEM), supplemented with 7% fetal calf serum, 7% horse serum, 100 μg/ml streptomycin, and 100 U/ml penicillin. The cultures were maintained in an incubator at 37° C. in a humidified atmosphere of 6% CO2. The growth medium was changed twice weekly and the cultures were split at 1:6 ratio once a week [Abu-Raya et al. J. Neurosci. Methods 50:197-203 (1993)].
For differentiation, an identical number of PC12 cells (3.75×10^5 cells) was plated on 6-wells plates coated with rat tail type I collagen (0.1 mg/ml) to promote cell adhesion [Abu-Raya et al Rasagiline, a monoamine oxidase-B inhibitor, protects NGF-differentiated PC12 cells against oxygen-glucose deprivation. J. Neurosci. Res. 58:456-463 (1999)]. The differentiation of the cultures was induced by treatment with NGF (50 ng/ml), added every 48 hr for a period of 7-8 days.
Cell death was evaluated by measuring the leakage of LDH into the growth medium as previously described [Abu-Raya et al. J. Neurosci. Res. 58:456-463, (1999)]. Samples of 50 μl of the growth medium were collected from each well and centrifuged at 3,500 rpm for 5 min at 25° C.; the supernatant was collected and LDH release was measured using a TRACE LD-L reagent. LDH activity was determined using an ELISA reader (TECAN, SPECTRAFluor PLUS, Grodig, Salzburg, Austria) at 340 nm by following the rate of conversion of oxidized nicotinamide adenine dinucleotide (NAD^+) to the reduced form of (NADH). MPP^+-induced LDH release was expressed as 100% of toxicity compared to control-untreated cultures. Each experiment was performed three times in duplicates (n=6).
On the day of the experiment, the NGF containing medium was replaced with fresh one. […]
MPP^+ was dissolved in growth medium containing NGF and added to each well in a final concentration of 1500 μM. […] The experiment was accomplished when percentage of cell death was in the range 30-60%, measured by the release of LDH into the medium. […]

In the case of CC1(C)CC(N)CC(C)(C)N1[O] [TMN, 2,2,6,6-tetramethylpiperidine-4-amino-1-oxyl], the “effect on clinical signs of MS, in words” value ([1]; SSL-TMN i.v., 80 nm, compared with Copaxone, Betaferon, empty SSL, free TMN, FIG. 2) is reported as “no observed effect against the disease”, the “#dead” value ([1]; Table 4B) is reported as 1 and the MDD ([1]; Table 4B) is reported as 19 ± 1.2. It also gave an MDO ([1]; Table 4B) of 14 ± 0.5, an MMS ([1]; Table 4B) of 3.9 ± 0.53 and a Mean score ([1]; Table 4B) of 3.5 ± 0.21. The Incidence ([1]; Table 4B, free TMN at same concentration as encapsulated in the liposomes) was 5/5, the “toxicity to the cells at higher concentration (bell shape)” value (PC12 neurons; 500 μM-1000 μM TMN) was “toxic to the cells” and the “protection of PC12 neurons from oxidative damage inflicted by MPP+ (LDH release)” value (PC12 neurons; 1500 μM MPP+, TMN 0.1-100 μM added 1 hr before, LDH after 48 hr, FIG. 1) was “protects PC12 neurons from oxidative damage”. The “most effective TMN concentration for protection against MPP+” value (PC12 neurons; 1500 μM MPP+, dose response 0.1-1000 μM) was 100 µM.
